The record followed here is patent EP0539209A1, “Benzo-isoquinoline derivatives and analogs and their use in therapeutics” (THE UPJOHN COMPANY, priority 1991, dated 1993).

SMILES strings stand for the structures.

The target of one experiment is dopamine D1 receptor (Homo sapiens, UniProt P21728). Description: CNS Receptor Binding Assay, dopamine D1. To be noted: PART I - TABLE I; test compounds at 1 microMolar concentration; standard SCH 23390. The source says:
(§1) CNS Receptor Binding Assay (PART I - TABLE I): The Central Nervous System Binding Assay measures the percent inhibibition from experiments employing test compounds at 1 microMolar concentration competing with various radioligands for binding to whole brain membranes, membranes prepared from specific brain structures, or membranes prepared from cell lines expressing cloned receptors. When percent inhibition is equal to 100 the test compound binds as well as the standard compound. The standard compound for the 5-HT1A receptor is 8-OH-DPAT. The standard compound for the dopamine D1 receptor is SCH 23390.
(§2) CNS Receptor Binding Assay (PART II - TABLE I): The Central Nervous System Binding Assay measures the percent inhibition from experiments employing test compounds at 1 microMolar concentration competing with various radioligands for binding to whole brain membranes, membranes prepared from specific brain structures, or membranes prepared from cell lines expressing cloned receptors. When percent inhibition is equal to 100 the test compound binds as well as the standard compound. The standard compound for the dopamine D1 receptor is SCH 23390.

A further experiment concerns the target T1, 5-HT1A receptor (Homo sapiens, UniProt P08908).
T1 sequence (P08908 1-422): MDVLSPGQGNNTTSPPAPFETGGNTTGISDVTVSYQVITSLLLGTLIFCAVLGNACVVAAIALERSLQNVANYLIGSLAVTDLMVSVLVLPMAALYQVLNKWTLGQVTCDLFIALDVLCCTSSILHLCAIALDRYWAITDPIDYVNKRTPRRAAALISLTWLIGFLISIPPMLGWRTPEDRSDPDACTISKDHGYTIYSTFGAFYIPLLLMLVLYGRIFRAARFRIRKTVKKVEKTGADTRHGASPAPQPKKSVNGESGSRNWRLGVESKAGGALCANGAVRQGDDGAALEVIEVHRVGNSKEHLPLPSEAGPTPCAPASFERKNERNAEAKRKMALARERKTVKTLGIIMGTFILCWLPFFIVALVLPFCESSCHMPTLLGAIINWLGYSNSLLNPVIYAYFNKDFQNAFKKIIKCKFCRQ
Description: CNS Receptor Binding Assay, 5-HT1A. To be noted: PART I - TABLE I; test compounds at 1 microMolar concentration competing with radioligand; 100 = binds as well as standard 8-OH-DPAT.
From the text: as §1

The next experiment has as its target Dopamine - D2 (Homo sapiens, UniProt P14416). Description: CNS Receptor Binding Assay, dopamine D2. As to conditions: PART I - TABLE I; test compounds at 1 microMolar concentration.
From the text: as §1, §2

Sequence of dopamine D1 receptor (P21728 whole entry, species assumed): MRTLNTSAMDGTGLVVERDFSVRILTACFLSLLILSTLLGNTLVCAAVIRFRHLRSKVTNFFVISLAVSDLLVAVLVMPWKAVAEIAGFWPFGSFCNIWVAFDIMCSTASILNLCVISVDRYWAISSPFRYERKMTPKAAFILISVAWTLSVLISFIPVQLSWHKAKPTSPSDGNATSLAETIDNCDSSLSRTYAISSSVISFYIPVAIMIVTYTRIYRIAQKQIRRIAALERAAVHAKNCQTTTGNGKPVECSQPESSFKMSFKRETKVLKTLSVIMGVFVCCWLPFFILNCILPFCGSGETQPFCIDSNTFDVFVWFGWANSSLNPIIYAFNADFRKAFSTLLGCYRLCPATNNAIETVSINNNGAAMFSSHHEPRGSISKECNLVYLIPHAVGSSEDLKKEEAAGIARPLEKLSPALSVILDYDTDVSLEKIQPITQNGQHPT
Sequence of Dopamine - D2 (P14416 whole entry): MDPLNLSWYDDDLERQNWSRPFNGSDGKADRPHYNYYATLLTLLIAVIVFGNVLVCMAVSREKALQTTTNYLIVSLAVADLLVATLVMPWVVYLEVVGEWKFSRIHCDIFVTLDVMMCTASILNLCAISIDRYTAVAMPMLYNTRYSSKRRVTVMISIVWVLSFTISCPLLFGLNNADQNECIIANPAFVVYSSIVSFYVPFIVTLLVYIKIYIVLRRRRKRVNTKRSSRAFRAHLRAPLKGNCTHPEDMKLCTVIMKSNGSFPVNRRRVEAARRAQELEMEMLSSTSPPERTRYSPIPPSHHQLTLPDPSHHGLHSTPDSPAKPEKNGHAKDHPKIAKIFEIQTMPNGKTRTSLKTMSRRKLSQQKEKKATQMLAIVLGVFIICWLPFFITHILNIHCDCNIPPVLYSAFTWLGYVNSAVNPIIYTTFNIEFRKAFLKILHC

Take `CCCN1CCC2Cc3cccc(C(N)=O)c3C2CC1` (single isomer, unassigned) [compound 3]: the “Dopamine - D1 % inhibition” value at dopamine D1 receptor was determined as 13%. The same compound had a 5-HT1A % inhibition at 5-HT1A receptor of 93%. The “Dopamine - D2 % inhibition” value on Dopamine - D2 turned out to be 45%.
On to `CCCN1CCC2Cc3cccc(C(N)=O)c3C2CC1` (single isomer, unassigned) [compound 4], for which the “Dopamine - D1 % inhibition” value at dopamine D1 receptor worked out at 0%. Also, at 5-HT1A receptor, the 5-HT1A % inhibition is 21%. Moreover, the “Dopamine - D2 % inhibition” value at Dopamine - D2 is given as 2%.
Consider `CCCN1CCC2Cc3c(C(N)=O)cccc3C2CC1` (single isomer, unassigned) [compound 5], for which the “Dopamine - D1 % inhibition” value at dopamine D1 receptor is listed as 10%. The inhibition at 1 µM on 5-HT1A receptor and on Dopamine - D2 was 24% each time.
In the case of `CCCN1CCC2Cc3c(C(N)=O)cccc3C2CC1` (single isomer, unassigned) [compound 6], the “Dopamine - D1 % inhibition” value on dopamine D1 receptor amounted to 50%. The compound also came in with a 5-HT1A % inhibition on 5-HT1A receptor of 18%. Also, the “Dopamine - D2 % inhibition” value at Dopamine - D2 amounted to 31%.
The matching figures for `CCCN1CCC2Cc3c(C#N)cccc3C2CC1` (single isomer, unassigned) [compound 7]: 11%, 17% and 22%.
For `CCCN1CCC2Cc3c(C#N)cccc3C2CC1` (single isomer, unassigned) [compound 8], the results for the inhibition at 1 µM at dopamine D1 receptor, at 5-HT1A receptor and at Dopamine - D2 were 7%, 15% and 35%, respectively.
The matching figures for `CCCN1CCC2Cc3c(Cl)ccc(OC)c3C2CC1` (stereo not drawn) [compound 1]: 57%, 99% and 74%.

One may read the inhibition as the relative decrease from the control value, in per cent.
